The text below walks through data of US20250144069A1, “BILOBALIDE DERIVATIVE COMPOUNDS FOR TREATING NEUROLOGICAL DISEASES AND CANCERS” (The Chinese University of Hong Kong, priority 2023, published 2025).

Assay [1] has as its system GPX4. In words: GPX4 protein level by Western-blot. Format: cell-based. The source says:
As mentioned above, RSL3 treatment results in an oxidized environment in cells, which promotes the CMA to scavenge damaged proteins including GPX4 or glyceraldehyde-3-phosphate dehydrogenase (GAPDH), a well-known CMA substrate. To gain insights into the mechanism of action of bilobalide analogue XBB-037 against the RSL3-induced ferroptosis, HMC3 cells were pre-treated with RSL3, followed by treatment with or without bilobalide analogue XBB-037.
(§1) In FIN56 assay, HMC3 (300,000 cells per well on 6-well plate) was pre-treated with FIN56 (2.5, 1.25, 0.625 μM) for 2 h, followed by 8 h treatment of DMSO only (0.1%) or XBB-037 (50 μM). In RSL3 assay, HMC3 (300,000 cells per well on 6-well plate) was pre-treated with RSL3 (750, 500, 250 nM) for 2 h, followed by 4 h or 8 h treatment of DMSO only (0.1%) or XBB-037 (50 μM). […] Antibodies for GPX4 (52455, CST) was used at 1:500 dilution, β-Actin (AC026, ABclonal) was used at 1:400,000 dilution, GAPDH (AC035, ABclonal) was used at 1:3000 dilution. […] Band intensity was normalized by image lab software.
Now referring to FIGS. 7E-7F, GPX4 levels in HMC3 cells pre-treated with RSL3 are shown. Protein levels of GPX4 and […] at 0, 250, 500 or 750 nM RSL3 were measured by Western-blot. HMC3 cells were pretreated with RSL3 for 2 hours and then treated with or without 50 μM bilobalide analogue XBB-037 for 4 hours.
In addition to […], FIN56 was further used to investigate the GPX4 regulation of bilobalide analogue XBB-037. As mentioned above, FIN56 is a Class III ferroptosis inducer, which causes the depletion of cellular GPX4 levels without affecting GPX4 activity. In this experiment, HMC3 cells were pretreated with FIN56 for 2 hours and then treated with or without 50 μM XBB-037 for 8 hours. Protein levels were measured by Western-blotting using indicated antibodies. Data were plotted as mean±s.d., n=3 technical replicates. **p<0.01. Statistical analyses were performed by two-way ANOVA with multiple comparisons using Two-stage linear step-up procedure of Benjamini, Krieger and Yekutieli multiple comparisons test. […]

The test system of assay [2] is HMC3 cells. The assay can be described thus: Lipid peroxidation level by flow cytometry using C11-BODIPY. The assay is classed as cell-based. To be noted: HMC3, 50 nM RSL3 2 h, then 50, 25 and 12.5 μM compound 3 h. As to the method:
For flow cytometry, HMC3 cells (seeded 50,000 cells per well on 24-well plate one day prior to the experiment) were pretreated with 50 nM RSL3 for 2 h. […] After which medium was replaced with BODIPY™ 581/591C11 (10 μM, Invitrogen) or CellROX™ Green (5 μM, Invitrogen) for 30 min staining. Cells were then washed 3 times with PBS and collected. Fluorescence was measured by BD FACSympgony A5.2 SORP Flow Cell Analyzer (BD Biosciences).
Disequilibrium ROS level acts as a direct initiator of lipid peroxidation, which is one of the major hallmarks of ferroptosis. In this example, HMC3 cells according to the conditions in Table 4 were subjected to measurement of lipid peroxidation level using flow cytometry and the lipid peroxidation sensor C11-BODIPY.
For flow cytometry, HMC3 cells (seeded 50,000 cells per well on 24-well plate one day prior to the experiment) were pretreated with 50 nM RSL3 for 2 h. After RSL3 treatment, medium was replaced by DMSO (0.1%) only, SXQ087-1 (10, 5 and 2.5 μM), following by 3 h treatment. After which medium was replaced with BODIPY™ 581/591C11 (10 μM, Invitrogen) for 30 min staining. Cells were then washed 3 times with PBS and collected. Fluorescence was measured by BD FACSympgony A5.2 SORP Flow Cell Analyzer (BD Biosciences).
Lipid peroxidation is one of the major hallmarks of ferroptosis. In this example, HMC3 cells according to the conditions in Table 5 were subjected to measurement of lipid peroxidation level using flow cytometry and the lipid peroxidation sensor C11-BODIPY.

Assay [3] is described as follows: Single-dose CCK-8 cell viability screening (adherent cells). The assay is classed as cell-based, human. The following applies: Homo sapiens, A549, 48 h, average of A549 and Jurkat % viability, 50 uM, 48 h.
Assay [4] deals with A549 cells. The description is as above. Format: cell-based, human. To be noted: Homo sapiens, A549, 48 h, A549 cells, 50 uM, 48 h, CCK-8; read-out: % Viability (50 uM, 48 h) A549.
Assay [5] concerns GAPDH. The assay can be described thus: GAPDH protein level by Western-blot after RSL3. The assay is classed as cell-based. The following applies: HMC3, 500 nM RSL3 2 h, then various concentrations of compound 8 h. As to the method:
as §1
This observation reflected the governing of GPX4 by bilobalide analogue XBB-037, which played an important role in the mechanism against RSL3-induced ferroptosis.

On to `CC(C)(C)[C@]1(O)C[C@@H]2OC(=O)C[C@@]23C(=O)O[C@@H]2N(c4ccc(N)cc4)C(=O)[C@H](OC(=O)c4ccccc4)[C@]213` [XBB-037, 4-(3aS,5aS,8R,9R,10aS)-8-(benzoyloxy)-9-(tert-butyl)-9-hydroxy-2,4,7-trioxohexahydro-4H,9H-furo[3″,2″:2′,3′]cyclopenta[1′,2′:3,4]furo[2,3-b]pyrrol-6(5aH)-yl)benzenaminium chloride], for which the “GPX4 level after FIN56” value in assay [1] (HMC3, FIN56 0.625, 1.25, 2.5 μM 2 h, then 50 μM compound 8 h) is recorded as “significantly restored GPX4 level”. Further, the “GPX4 level after RSL3” value in assay [1] (HMC3, RSL3 0, 250, 500 or 750 nM 2 h, then 50 μM compound 4 h) is given as “RSL3-induced GPX4 degradation was reduced”. For the same compound, the “lipid peroxidation level (C11-BODIPY)” value in assay [2] is “significant down-regulation of RSL3-induced lipid peroxidation accumulation in a dose-dependent manner”. The viability at 50 µM in assay [3] turned out to be 90.5%; in assay [4] it was 95%. Moreover, in assay [5], the “GAPDH level after RSL3” value is recorded as “restored the level of GAPDH”.
